In US20090011424A1, “Cancer-suppressing agents” (Tokyo Medical and Dental University, priority 2005, published 2009):

System: SMS-KAN cell
Assay: messenger RNA expression analysis, AceGene Human oligo chip 30 K, NR1I2-expressing clone B1 vs control clone
Type: cell-based
Settings: 1st: Cy3-B1/Cy5-control
From the text: The NR1I2 gene has been known as a transcriptional factor. Thus, it is possible to know what type of gene expression is controlled by obtaining messenger RNAs from cells causing NR1I2 protein expression and cells not causing such expression, and comparing the expression levels thereof with each other. As described above, the NR1I2 gene protein may have an effect of inhibiting cancer. […] Therefore, pCMV-Tag3 vector not containing a foreign gene as a control was introduced into SMS-KAN cell, and pCMV-Tag3-VP-NR1I2 containing the NR1I2 gene as a test sample was introduced into SMS-KAN cell. As a result, a control cell clone and a cell clone B1 permanently causing NR1I2 protein expression were obtained. Thereafter, analysis of messenger RNA expression was carried out using these two types of cells and an AceGene Human oligo chip 30 K (DNA Chip Research Inc.), with which the expression levels of 30,000 human genes can be observed (Inoue. J., et al. Am J. Pathol. 165. 71. 2004). A complementary strand DNA (complimentary DNA) was prepared, into which aminoallyl-dUTP (Ambion Inc.) was incorporated using an Oligo (dT) 12-18 primer. Then, the aminoallyl group was labeled with reactive Cy3 (cyanin 3) and Cy5 (cyanin 5) (Amersham Biosciences) via a coupling reaction. Hybridization was performed twice (1st: Cy3-B1/Cy5-control; 2nd: Cy5-B1/Cy3-control). Signals were measured using a GenePix 4000B (Axon Instruments) so as to be analyzed by GenePix Pro 4.1 software (Axon Instruments). Tables 3 and 4 are lists of genes, where in the cases of SMS-KAN cells into which the NR1I2 gene had been introduced in the two experiments, the expression levels were 1.5-fold or greater than the expression level in the case of a control cell clone.

For “NR1I2 gene: human-derived gene, nuclear receptor subfamily 1, group I, member 2 (pregnane X receptor, PXR), nucleotide sequence SEQ ID NO: 1”, the “ADAMTS2 expression level Ratio 1st” value was 1.58, the “ADNP expression level Ratio 1st” value was 1.61 and the “AP3S2 expression level Ratio 1st” value was 2.51. The “APEG1 expression level Ratio 1st” value was 1.88, the “APOA1 expression level Ratio 1st” value was 1.98 and the “APP expression level Ratio 1st” value was 2.03. The “ARHC expression level Ratio 1st” value was 1.50, the “ARL2 expression level Ratio 1st” value was 1.51 and the “ASCL2 expression level Ratio 1st” value was 2.43. For the same substance, the “ASH1 expression level Ratio 1st” value was 1.81, the “B4GALT5 expression level Ratio 1st” value was 1.54 and the “BARD1 expression level Ratio 1st” value was 1.90. For the same substance, the “BCAT2 expression level Ratio 1st” value was 1.61, the “BLP2 expression level Ratio 1st” value was 1.51 and the “BMP15 expression level Ratio 1st” value was 1.50. For the same substance, the “C6orf25 expression level Ratio 1st” value was 1.74, the “CCNA1 expression level Ratio 1st” value was 1.89 and the “CDC7L1 expression level Ratio 1st” value was 1.84. For the same substance, the “CISH expression level Ratio 1st” value was 2.14, the “CORO2A expression level Ratio 1st” value was 1.71 and the “Cab45 expression level Ratio 1st” value was 1.84. The “DKFZp434G05 expression level Ratio 1st” value was 1.56, the “DKKL1 expression level Ratio 1st” value was 1.53 and the “DNA12 expression level Ratio 1st” value was 1.52. The “EPHX1 expression level Ratio 1st” value was 2.22, the “ERCC1 expression level Ratio 1st” value was 1.82 and the “ETR101 expression level Ratio 1st” value was 1.65. For the same substance, the “EXT1 expression level Ratio 1st” value was 1.87, the “FLJ10737 expression level Ratio 1st” value was 1.51 and the “FLJ12389 expression level Ratio 1st” value was 2.16. The “FLJ13197 expression level Ratio 1st” value was 2.95, the “FLJ13479 expression level Ratio 1st” value was 1.92 and the “FLJ20288 expression level Ratio 1st” value was 1.81. The “FLJ20555 expression level Ratio 1st” value was 1.51, the “FLJ23462 expression level Ratio 1st” value was 1.64 and the “FOFR3 expression level Ratio 1st” value was 1.56. The “GLI2 expression level Ratio 1st” value was 2.68, the “GNE expression level Ratio 1st” value was 1.87 and the “GSTT2 expression level Ratio 1st” value was 3.23. The “GUCY1A3 expression level Ratio 1st” value was 1.60, the “HHEX expression level Ratio 1st” value was 1.55 and the “HNT expression level Ratio 1st” value was 1.55. For the same substance, the “HPCL2 expression level Ratio 1st” value was 1.72, the “ICAM5 expression level Ratio 1st” value was 1.52 and the “IFIT4 expression level Ratio 1st” value was 1.52. For the same substance, the “INSL6 expression level Ratio 1st” value was 1.66, the “IRC039700 expression level Ratio 1st” value was 2.12 and the “KCNJ15 expression level Ratio 1st” value was 1.88. For the same substance, the “KIAA0161 expression level Ratio 1st” value was 1.54, the “KIAA0212 expression level Ratio 1st” value was 2.01 and the “LBP-9 expression level Ratio 1st” value was 1.93. The “LDB1 expression level Ratio 1st” value was 1.58, the “LICAM expression level Ratio 1st” value was 1.87 and the “LILRB5 expression level Ratio 1st” value was 1.73. The “LOC51024 expression level Ratio 1st” value was 1.67, the “LRP8 expression level Ratio 1st” value was 1.52 and the “LZLP expression level Ratio 1st” value was 1.58. For the same substance, the “MAFG expression level Ratio 1st” value was 2.51, the “MGC2306 expression level Ratio 1st” value was 1.55 and the “MGC2941 expression level Ratio 1st” value was 1.90. The “MPP6 expression level Ratio 1st” value was 1.67, the “MT-ACT48 expression level Ratio 1st” value was 1.59 and the “OCM expression level Ratio 1st” value was 1.7. The “OMP expression level Ratio 1st” value was 1.55, the “OPA3 expression level Ratio 1st” value was 2.46 and the “ORC5L expression level Ratio 1st” value was 1.67. For the same substance, the “ORM1 expression level Ratio 1st” value was 1.58, the “PCDHA4 expression level Ratio 1st” value was 1.94 and the “PCDHB10 expression level Ratio 1st” value was 1.63. The “PDCD8 expression level Ratio 1st” value was 2.00, the “PFKFB4 expression level Ratio 1st” value was 4.90 and the “PGAM1 expression level Ratio 1st” value was 2.13. For the same substance, the “PITPN expression level Ratio 1st” value was 1.73, the “PLA2G2A expression level Ratio 1st” value was 3.01 and the “PLCE1 expression level Ratio 1st” value was 2.89. The “PLEKHA1 expression level Ratio 1st” value was 1.54, the “PRO2121 expression level Ratio 1st” value was 1.89 and the “PRO2831 expression level Ratio 1st” value was 1.51. The “RDH5 expression level Ratio 1st” value was 1.62, the “RP1 expression level Ratio 1st” value was 1.54 and the “RPL39L expression level Ratio 1st” value was 2.30. For the same substance, the “RPS16 expression level Ratio 1st” value was 1.56, the “SC65 expression level Ratio 1st” value was 1.56 and the “SCD expression level Ratio 1st” value was 1.74. For the same substance, the “SCN2B expression level Ratio 1st” value was 1.52, the “SLC22A11 expression level Ratio 1st” value was 1.66 and the “SNAP91 expression level Ratio 1st” value was 3.38. For the same substance, the “STK11 expression level Ratio 1st” value was 1.62, the “SURF1 expression level Ratio 1st” value was 1.92 and the “TCEA1 expression level Ratio 1st” value was 1.54. The “TGM2 expression level Ratio 1st” value was 1.59, the “TIMM10 expression level Ratio 1st” value was 1.87 and the “TLAL1 expression level Ratio 1st” value was 2.34. For the same substance, the “TMPRSS4 expression level Ratio 1st” value was 1.55, the “TOP3B expression level Ratio 1st” value was 1.59 and the “TPARL expression level Ratio 1st” value was 1.56. The “TRPV4 expression level Ratio 1st” value was 1.77, the “TSPAN-1 expression level Ratio 1st” value was 1.67 and the “UXT expression level Ratio 1st” value was 2.90. The “WHSC2 expression level Ratio 1st” value was 1.65.
